Several values for one entry are separate records, joined by “and”; a condition that tells them apart may be missing. Identical values can stand only once.
Legend:
[1] = target: wild-type EGFR (Homo sapiens, UniProt P00533); assay: EGFR kinase assay (ELISA); conditions: for IC50: IC50 (μM) EGFR, ELISA, 3 μmol/L ATP; for A450: raw ELISA absorbance
[2] = system: H460 cells; assay: CCK-8 antiproliferation assay, H460; conditions: for Inhibitory efficacy: H460 cells; for IC50: NCI-H460, 48 h, read-out: IC50 (μM) H460, CCK-8, 48 h, average ± SD of three independent experiments
[3] = system: A549 cells; assay: CCK-8 antiproliferation assay, A549; conditions: for Inhibitory efficacy: A549 cells; for IC50: A549, 48 h, read-out: IC50 (μM) A549, CCK-8, 48 h, average ± SD of three independent experiments
[4] = system: PC-9 cells; assay: CCK-8 antiproliferation assay, PC-9; conditions: for IC50: PC-9, 48 h, read-out: IC50 (μM) PC-9; for Inhibitory efficacy: single repeats (Repeat 1-3), given as fraction
Procedure: The compounds were dissolved in DMSO to make a 20 μM stock solution and diluted to the concentration of working solutions with complete growth medium before administration.
Cells were seeded in 96-well plates: 3,000–5,000 cells/well in 100 ul. One day after seeding, the test compounds at concentration between 1.0 and 16.0 μ M or 0.1% DMSO (as control) were added to cells in triplicate. 48 h later, CCK-8 was added and incubated the plate for 1–4 h in the incubator. The absorbance at 450 nm were measured using a microplate reader (Bio-Tek).

[5] = system: H1975 cells; assay: CCK-8 antiproliferation assay, H1975; conditions: for Inhibitory efficacy: H1975 cells; for IC50: NCI-H1975, 48 h, read-out: IC50 (μM) H1975, CCK-8, 48 h, average ± SD of three independent experiments
[6] = 1uM, given as fraction, Repeat 1-3
[7] = 2uM, given as fraction, Repeat 1-3
[8] = 8uM, given as fraction, Repeat 1-3
[9] = Homo sapiens, NCI-H460, read-out: Inhibitory efficacy, H460 cells, 1uM, given as fraction, Repeat 1-3
[10] = Homo sapiens, NCI-H460, read-out: Inhibitory efficacy, H460 cells, 2uM, given as fraction, Repeat 1-3
[11] = Homo sapiens, NCI-H460, read-out: Inhibitory efficacy, H460 cells, 8uM, given as fraction, Repeat 1-3
[12] = 16uM, given as fraction, Repeat 1-3
[13] = Homo sapiens, A549, read-out: Inhibitory efficacy, A549 cells, 16uM, given as fraction, Repeat 1-3
[14] = 4uM, given as fraction, Repeat 1-3

Sequence of wild-type EGFR (P00533 25-1210): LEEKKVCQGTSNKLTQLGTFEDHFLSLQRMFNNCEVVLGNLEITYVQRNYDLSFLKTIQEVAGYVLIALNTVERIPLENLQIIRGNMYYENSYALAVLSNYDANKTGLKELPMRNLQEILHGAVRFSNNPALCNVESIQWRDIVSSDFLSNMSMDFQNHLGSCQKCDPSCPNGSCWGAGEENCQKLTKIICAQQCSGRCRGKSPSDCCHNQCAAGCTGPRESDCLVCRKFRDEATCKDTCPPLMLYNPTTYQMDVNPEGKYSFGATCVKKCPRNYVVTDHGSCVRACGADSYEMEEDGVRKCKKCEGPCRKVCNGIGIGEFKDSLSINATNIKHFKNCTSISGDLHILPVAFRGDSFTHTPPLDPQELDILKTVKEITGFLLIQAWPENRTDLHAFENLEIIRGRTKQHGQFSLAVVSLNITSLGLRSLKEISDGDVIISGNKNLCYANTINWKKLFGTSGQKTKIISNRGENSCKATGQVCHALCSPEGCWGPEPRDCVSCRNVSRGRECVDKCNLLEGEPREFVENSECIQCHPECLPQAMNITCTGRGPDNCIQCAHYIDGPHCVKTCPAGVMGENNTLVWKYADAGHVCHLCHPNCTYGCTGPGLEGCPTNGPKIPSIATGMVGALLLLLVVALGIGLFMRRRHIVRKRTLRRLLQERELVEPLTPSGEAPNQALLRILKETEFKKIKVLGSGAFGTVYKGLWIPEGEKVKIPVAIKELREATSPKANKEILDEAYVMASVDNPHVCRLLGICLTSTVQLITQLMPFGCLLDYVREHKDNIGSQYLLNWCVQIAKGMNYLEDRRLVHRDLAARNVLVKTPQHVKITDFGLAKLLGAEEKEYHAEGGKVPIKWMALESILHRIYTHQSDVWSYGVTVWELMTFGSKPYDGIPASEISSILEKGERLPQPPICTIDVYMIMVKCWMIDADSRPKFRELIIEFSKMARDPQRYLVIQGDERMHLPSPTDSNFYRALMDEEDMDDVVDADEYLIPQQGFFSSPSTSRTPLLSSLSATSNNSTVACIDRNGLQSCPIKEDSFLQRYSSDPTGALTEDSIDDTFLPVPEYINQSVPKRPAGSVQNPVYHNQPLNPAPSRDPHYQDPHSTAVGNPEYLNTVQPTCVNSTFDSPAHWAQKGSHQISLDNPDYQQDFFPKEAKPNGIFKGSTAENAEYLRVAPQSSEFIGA

Work on `COCCOc1cc2ncnc(Nc3cccc(-c4cn(Cc5ccccc5Br)nn4)c3)c2cc1OCCOC` [e3, [6,7-Bis-(2-methoxy-ethoxy)-quinazolin-4-yl]-{3-[1-(2-bromo-benzyl)-1H-[1,2,3]triazol-4-yl]-phenyl}-amine] yielded a melting point of 94 to 97 °C, an IC50 [1] of 68 µM and an inhibition at 100 fM ([1]; concentration 0.0001 nM (reference for normalisation), one value per replicate column) of 0%. It also gave an inhibition at 30 pM ([1]; concentration 0.03 nM, one value per replicate column) of 11.8%, an Inhibition ([1]; concentration 0.03 nM, one value per replicate column, 3e-05 µM) of 14.7465 and an inhibition at 0.0003 µM ([1]; concentration 0.3 nM, one value per replicate column) of 17.6%. The Inhibition ([1]; concentration 0.3 nM, one value per replicate column, 0.0003 µM) was 17.0507, the inhibition at 0.003 µM ([1]; concentration 3 nM, one value per replicate column) was 19.3% and the Inhibition ([1]; concentration 3 nM, one value per replicate column, 0.003 µM) was 17.0507. For the same compound, the inhibition at 0.03 µM ([1]; concentration 30 nM, one value per replicate column) was 37.4%, the Inhibition ([1]; concentration 30 nM, one value per replicate column, 0.03 µM) was 28.1106 and the inhibition at 0.3 µM ([1]; concentration 300 nM, one value per replicate column) was 42.2%. It also gave an Inhibition ([1]; concentration 300 nM, one value per replicate column, 0.3 µM) of 35.4839, an inhibition at 3 µM ([1]; concentration 3000 nM, one value per replicate column) of 42.8% and an Inhibition ([1]; concentration 3000 nM, one value per replicate column, 3 µM) of 36.8664. For the same compound, the inhibition at 30 µM ([1]; concentration 30000 nM, one value per replicate column) was 44.9%, the Inhibition ([1]; concentration 30000 nM, one value per replicate column, 30 µM) was 39.1705 and the A450 ([1]; concentration 0.0001 nM) was 0.398 and 0.464. The A450 ([1]; concentration 0.03 nM) was 0.376 and 0.432, the A450 ([1]; concentration 0.3 nM) was 0.365 and 0.427 and the A450 ([1]; concentration 3 nM) was 0.362 and 0.427. The A450 ([1]; concentration 30 nM) was 0.328 and 0.403, the A450 ([1]; concentration 300 nM) was 0.319 and 0.387 and the A450 ([1]; concentration 3000 nM) was 0.318 and 0.384. For the same compound, the A450 ([1]; concentration 30000 nM) was 0.314 and 0.379, the Inhibitory efficacy [2, 6] was 0.2775 and 0.3081 and the Inhibitory efficacy [2, 7] was 0.3143 and 0.3387. For the same compound, the Inhibitory efficacy [2, 8] was 0.3004 and 0.3491, the IC50 ([2]; Homo sapiens) was > 100 µM and the inhibition at 1 µM [2, 9] was 30.3%. For the same compound, the inhibition at 2 µM [2, 10] was 35%, the inhibition at 8 µM [2, 11] was 29% and the Inhibitory efficacy [3, 12] was 0.1506 and 0.2274. The IC50 ([3]; Homo sapiens) was > 100 µM, the inhibition at 16 µM [3, 13] was 15.2% and the IC50 ([4]; Homo sapiens) was > 100 µM. The Inhibitory efficacy [5, 14] was 0.09844 and 0.1507, the Inhibitory efficacy [5, 8] was 0.1976 and 0.2347 and the Inhibitory efficacy [5, 12] was 0.494 and 0.5082. It also gave an IC50 ([5]; Homo sapiens) of 16.8 ± 1.02 µM, an inhibition at 4 µM ([5]; Homo sapiens, NCI-H1975, read-out: Inhibitory efficacy, H1975 cells, 4uM, given as fraction, Repeat 1-3) of 11.4% and an inhibition at 8 µM ([5]; Homo sapiens, NCI-H1975, read-out: Inhibitory efficacy, H1975 cells, 8uM, given as fraction, Repeat 1-3) of 25%. For the same compound, the inhibition at 16 µM ([5]; Homo sapiens, NCI-H1975, read-out: Inhibitory efficacy, H1975 cells, 16uM, given as fraction, Repeat 1-3) was 44.1%.

With `COCCOc1cc2ncnc(Nc3cccc(-c4cn(-c5ccccc5F)nn4)c3)c2cc1OCCOC` [e6, [6,7-Bis-(2-methoxy-ethoxy)-quinazolin-4-yl]-{3-[1-(2-fluoro-phenyl)-1H-[1,2,3]triazol-4-yl]-phenyl}-amine] the melting point was 83 to 86 °C, the inhibition at 0.0003 µM ([1]; 0.3 nM, duplicate wells, calculated from A450) was 17.1% and the Inhibition ([1]; 0.3 nM, duplicate wells, calculated from A450, 0.0003 µM) was 10.6583. For the same compound, the inhibition at 0.003 µM ([1]; 3 nM, duplicate wells, calculated from A450) was 21.5%, the Inhibition ([1]; 3 nM, duplicate wells, calculated from A450, 0.003 µM) was 11.5987 and the inhibition at 0.03 µM ([1]; 30 nM, duplicate wells, calculated from A450) was 26.3%. It also gave an Inhibition ([1]; 30 nM, duplicate wells, calculated from A450, 0.03 µM) of 21.0031, an inhibition at 0.3 µM ([1]; 300 nM, duplicate wells, calculated from A450) of 29.7% and an Inhibition ([1]; 300 nM, duplicate wells, calculated from A450, 0.3 µM) of 21.3166. For the same compound, the inhibition at 3 µM ([1]; 3000 nM, duplicate wells, calculated from A450) was 70.9%, the Inhibition ([1]; 3000 nM, duplicate wells, calculated from A450, 3 µM) was 70.8464 and the inhibition at 30 µM ([1]; 30000 nM, duplicate wells, calculated from A450) was 91.8%. For the same compound, the Inhibition ([1]; 30000 nM, duplicate wells, calculated from A450, 30 µM) was 93.4169, the IC50 [1] was 0.69 µM and the Inhibitory efficacy [2, 6] was 0.0882 and 0.09728. The Inhibitory efficacy [2, 7] was 0.2957 and 0.2477, the Inhibitory efficacy [2, 14] was 0.4663 and 0.4358 and the Inhibitory efficacy [2, 8] was 0.4163 and 0.4008. The Inhibitory efficacy [2, 12] was 0.4274 and 0.4066, the IC50 ([2]; Homo sapiens) was 18.5 ± 2 µM and the inhibition at 1 µM [2, 9] was 14.7%. For the same compound, the inhibition at 2 µM [2, 10] was 33.2%, the inhibition at 4 µM ([2]; Homo sapiens, NCI-H460, read-out: Inhibitory efficacy, H460 cells, 4uM, given as fraction, Repeat 1-3) was 39.8% and the inhibition at 8 µM [2, 11] was 42.1%. For the same compound, the inhibition at 16 µM ([2]; Homo sapiens, NCI-H460, read-out: Inhibitory efficacy, H460 cells, 16uM, given as fraction, Repeat 1-3) was 44.7%, the Inhibitory efficacy [3, 7] was 0.2224 and 0.3459 and the Inhibitory efficacy [3, 14] was 0.572 and 0.5248. The Inhibitory efficacy [3, 8] was 0.6524 and 0.6253, the Inhibitory efficacy [3, 12] was 0.6986 and 0.7076 and the IC50 ([3]; Homo sapiens) was 4.88 ± 0.54 µM. The inhibition at 2 µM ([3]; Homo sapiens, A549, read-out: Inhibitory efficacy, A549 cells, 2uM, given as fraction, Repeat 1-3) was 25.8%, the inhibition at 4 µM ([3]; Homo sapiens, A549, read-out: Inhibitory efficacy, A549 cells, 4uM, given as fraction, Repeat 1-3) was 45.7% and the inhibition at 8 µM ([3]; Homo sapiens, A549, read-out: Inhibitory efficacy, A549 cells, 8uM, given as fraction, Repeat 1-3) was 63.5%. It also gave an inhibition at 16 µM [3, 13] of 69.8%, an IC50 ([4]; Homo sapiens) of 3.27 ± 0.14 µM and an inhibition at 2 µM ([4]; Homo sapiens, PC-9, read-out: Inhibitory efficacy, PC-9, 2uM, single repeats (Repeat 1-3), given as fraction) of 37.3%. For the same compound, the inhibition at 4 µM ([4]; Homo sapiens, PC-9, read-out: Inhibitory efficacy, PC-9, 4uM, single repeats (Repeat 1-3), given as fraction) was 61.7%, the inhibition at 8 µM ([4]; Homo sapiens, PC-9, read-out: Inhibitory efficacy, PC-9, 8uM, single repeats (Repeat 1-3), given as fraction) was 77.6% and the inhibition at 16 µM ([4]; Homo sapiens, PC-9, read-out: Inhibitory efficacy, PC-9, 16uM, single repeats (Repeat 1-3), given as fraction) was 85%. The Inhibitory efficacy ([4]; PC-9, 2uM, 2 µM) was 0.401 and 0.3548, the Inhibitory efficacy ([4]; PC-9, 4uM, 4 µM) was 0.5712 and 0.6591 and the Inhibitory efficacy ([4]; PC-9, 8uM, 8 µM) was 0.783 and 0.7626. For the same compound, the Inhibitory efficacy ([4]; PC-9, 16uM, 16 µM) was 0.8422 and 0.8588 and the IC50 ([5]; Homo sapiens) was 16.5 ± 3.53 µM.

Source: article PMC8776995 (Frontiers in Chemistry, 2022)
